Results on two molecules are retold here after BindingDB's records for doi:10.1016/j.ejmech.2020.113116 (University of Pisa, 2021).

Each structure is given as a SMILES string.

Broadly, the EC50 is the concentration needed to bring the measured effect to its halfway point.

Assay [1] is described as follows: Positive allosteric modulator activity at human CB2R expressed in CHO-K1 cell membrane assessed as CP55940 EC50 for [35S]GTPgammaS binding at 1 nM measured after 90 mins by liquid scintillation counting analysis (Rvb = 1.9 nM). In general terms: GTPγS resists hydrolysis and so accumulates on activated G proteins.
Assay [2] is described as follows: Positive allosteric modulator activity at human CB2R expressed in CHO-K1 cell membrane assessed as CP55940 EC50 for [35S]GTPgammaS binding at 100 nM measured after 90 mins by liquid scintillation counting analysis (Rvb = 1.9 nM).

Turning to `Cc1c(Br)cn(Cc2ccccc2F)c(=O)c1NC(=O)C1CCCCCC1`, the EC50 came out at 3.4 nM in assay [1] and 7 nM in assay [2].

Consider `Cc1c(Br)cn(Cc2ccccc2Cl)c(=O)c1NC(=O)C1CCCCCC1`, for which the 50% effective concentration (EC50) in assay [1] amounted to 2.6 nM; in assay [2], 2.4 nM.
